The values below come from ChEMBL document CHEMBL3046948, “Synthesis and SAR investigation of natural phenylpropene-derived methoxylated cinnamaldehydes and their novel Schiff bases as potent antimicrobial and antioxidant agents” (2013).

Holding throughout (type): functional
One assay has as its system Staphylococcus aureus. Briefly: Antimicrobial activity against Staphylococcus aureus MTCC 3160 assessed as growth inhibition after 24 hr by broth microdilution method.
The subject of a further assay is Burkholderia cepacia. Briefly: Antimicrobial activity against Burkholderia cepacia MTCC 438 assessed as growth inhibition after 24 hr by broth microdilution method. On the technique in general: In broth dilution the organism is exposed to a series of concentrations in liquid medium.
Another assay concerns Pseudomonas aeruginosa. In words: Antimicrobial activity against Pseudomonas aeruginosa MTCC 424 assessed as growth inhibition after 24 hr by broth microdilution method.
In a further assay the test system is Escherichia coli. In words: Antimicrobial activity against Escherichia coli MTCC 43 assessed as growth inhibition after 24 hr by broth microdilution method.
For another assay, the system named is Trichophyton rubrum. Briefly: Antimicrobial activity against Trichophyton rubrum MTCC 296 assessed as growth inhibition after 5 days by broth microdilution method.
The test system of another assay is Pichia kudriavzevii. Briefly: Antimicrobial activity against Pichia kudriavzevii MTCC 231 assessed as growth inhibition after 24 hr by broth microdilution method.
For another assay, the system named is Aspergillus sydowii. Briefly: Antimicrobial activity against Aspergillus sydowii MTCC 4335 assessed as growth inhibition after 5 days by broth microdilution method.
In the next assay the test system is Micrococcus luteus. Briefly: Antimicrobial activity against Micrococcus luteus MTCC 2470 assessed as growth inhibition after 24 hr by broth microdilution method.
For a further assay, the system named is Klebsiella pneumoniae. Briefly: Antimicrobial activity against Klebsiella pneumoniae MTCC 109 assessed as growth inhibition after 24 hr by broth microdilution method.
For a further assay, the system named is Candida albicans. In words: Antimicrobial activity against Candida albicans MTCC 3017 assessed as growth inhibition after 24 hr by broth microdilution method.
The subject of another assay is Bacillus subtilis. In words: Antimicrobial activity against Bacillus subtilis MTCC 121 assessed as growth inhibition after 24 hr by broth microdilution method.
For another assay, the system named is Aspergillus niger. In words: Antimicrobial activity against Aspergillus niger MTCC 404 assessed as growth inhibition after 5 days by broth microdilution method.
The test system of the next assay is Enterobacter cloacae. In words: Antimicrobial activity against Enterobacter cloacae MTCC 509 assessed as growth inhibition after 24 hr by broth microdilution method.
The next assay has as its system Aspergillus parasiticus. Briefly: Antimicrobial activity against Aspergillus parasiticus MTCC 2797 assessed as growth inhibition after 5 days by broth microdilution method.

Molecules are shown by their SMILES. Converted amounts (≈) assume the structure as drawn. The source made the active and inactive calls.

For `COc1cc(OC)c(OC)cc1C=O` [ASARALDEHYDE], the minimal inhibitory concentration (MIC) (usually the smallest concentration in the dilution series that meets the test's criterion for growth inhibition) with Staphylococcus aureus (MTCC 3160, 24 h) turned out to be 5.1 mM (≈ 1000 µg/mL); in the assay with Burkholderia cepacia (MTCC 438, 24 h), 5.1 mM (≈ 1000 µg/mL); in the assay with Pseudomonas aeruginosa (MTCC 424, 24 h), 2.55 mM (≈ 500 µg/mL); in the assay on Escherichia coli (MTCC 43, 24 h), 10.2 mM (≈ 2000 µg/mL); with Trichophyton rubrum (MTCC 296, 120 h) it was 0.16 mM (≈ 31.4 µg/mL); in the assay on Pichia kudriavzevii (MTCC 231, 24 h) it was 2.55 mM (≈ 500 µg/mL). In addition, the MIC with Aspergillus sydowii (MTCC 4335, 120 h) was 5.1 mM (≈ 1000 µg/mL); with Micrococcus luteus (MTCC 2470, 24 h) it was 2.55 mM (≈ 500 µg/mL); in the assay with Klebsiella pneumoniae (MTCC 109, 24 h), 10.2 mM (≈ 2000 µg/mL); in the assay on Candida albicans (MTCC 3017, 24 h) it was 2.55 mM (≈ 500 µg/mL); with Bacillus subtilis (MTCC 121, 24 h), 5.1 mM (≈ 1000 µg/mL); in the assay with Aspergillus niger (MTCC 404, 120 h) it was 5.1 mM (≈ 1000 µg/mL). The minimal inhibitory concentration (MIC) in the assay with Enterobacter cloacae (MTCC 509, 24 h) was determined as 10.2 mM (≈ 2000 µg/mL); in the assay on Aspergillus parasiticus (MTCC 2797, 120 h), 2.55 mM (≈ 500 µg/mL).

With `OC/C=C/c1ccccc1` [CINNAMIC ALCOHOL], the MIC in the assay on Staphylococcus aureus (MTCC 3160, 24 h) is 14.9 mM (≈ 2000 µg/mL); in the assay on Burkholderia cepacia (MTCC 438, 24 h), 1.86 mM (≈ 250 µg/mL); in the assay on Pseudomonas aeruginosa (MTCC 424, 24 h), 3.72 mM (≈ 499 µg/mL); with Escherichia coli (MTCC 43, 24 h), 7.45 mM (≈ 1000 µg/mL); in the assay with Trichophyton rubrum (MTCC 296, 120 h) it was 1.86 mM (≈ 250 µg/mL); in the assay with Pichia kudriavzevii (MTCC 231, 24 h), 3.72 mM (≈ 499 µg/mL). In addition, the minimum inhibitory concentration (MIC) in the assay with Aspergillus sydowii (MTCC 4335, 120 h) was found to be 3.72 mM (≈ 499 µg/mL); in the assay with Micrococcus luteus (MTCC 2470, 24 h), 7.45 mM (≈ 1000 µg/mL); in the assay with Klebsiella pneumoniae (MTCC 109, 24 h) it was 3.72 mM (≈ 499 µg/mL); in the assay with Candida albicans (MTCC 3017, 24 h), 1.86 mM (≈ 250 µg/mL); in the assay on Bacillus subtilis (MTCC 121, 24 h), 7.45 mM (≈ 1000 µg/mL); in the assay on Aspergillus niger (MTCC 404, 120 h), 3.72 mM (≈ 499 µg/mL). The MIC with Enterobacter cloacae (MTCC 509, 24 h) was found to be 7.45 mM (≈ 1000 µg/mL); in the assay with Aspergillus parasiticus (MTCC 2797, 120 h), 3.72 mM (≈ 499 µg/mL).

As to `COc1ccc(/C=C/C=O)cc1OC` [3,4-DIMETHOXY CINNAMALDEHYDE], the minimal inhibitory concentration (MIC) turned out to be 5.2 mM (≈ 1000 µg/mL) in the assay on Staphylococcus aureus (MTCC 3160, 24 h); 5.2 mM (≈ 1000 µg/mL) in the assay on Burkholderia cepacia (MTCC 438, 24 h); 2.6 mM (≈ 500 µg/mL) in the assay with Pseudomonas aeruginosa (MTCC 424, 24 h); 10.4 mM (≈ 2000 µg/mL) in the assay on Escherichia coli (MTCC 43, 24 h); 2.6 mM (≈ 500 µg/mL) in the assay with Trichophyton rubrum (MTCC 296, 120 h); 2.6 mM (≈ 500 µg/mL) with Pichia kudriavzevii (MTCC 231, 24 h). Moreover, the MIC in the assay with Aspergillus sydowii (MTCC 4335, 120 h) came to 5.2 mM (≈ 1000 µg/mL); in the assay on Micrococcus luteus (MTCC 2470, 24 h) it was 2.6 mM (≈ 500 µg/mL); in the assay on Klebsiella pneumoniae (MTCC 109, 24 h), 10.4 mM (≈ 2000 µg/mL); in the assay with Candida albicans (MTCC 3017, 24 h), 2.6 mM (≈ 500 µg/mL); with Bacillus subtilis (MTCC 121, 24 h) it was 5.2 mM (≈ 1000 µg/mL); with Aspergillus niger (MTCC 404, 120 h) it was 5.2 mM (≈ 1000 µg/mL). Besides, the MIC with Enterobacter cloacae (MTCC 509, 24 h) was determined as 10.4 mM (≈ 2000 µg/mL); in the assay on Aspergillus parasiticus (MTCC 2797, 120 h), 2.6 mM (≈ 500 µg/mL).

Take `C/C=C/c1ccc(OC)cc1` [ANETHOLE]: the MIC result with Staphylococcus aureus, in the assay with Burkholderia cepacia, in the assay on Pseudomonas aeruginosa, in the assay with Escherichia coli, with Trichophyton rubrum and with Aspergillus sydowii was “inactive” each time. For the same compound, the MIC entry with Micrococcus luteus, with Klebsiella pneumoniae, in the assay on Bacillus subtilis, in the assay with Aspergillus niger, in the assay on Enterobacter cloacae and with Aspergillus parasiticus was “inactive” each time. For the same compound, the minimal inhibitory concentration (MIC) in the assay with Pichia kudriavzevii (MTCC 231, 24 h) is 6.74 mM (≈ 999 µg/mL); in the assay with Candida albicans (MTCC 3017, 24 h), 6.74 mM (≈ 999 µg/mL).

Consider `CCOC(=O)/C=C/c1ccc2c(c1)OCO2`, for which the MIC entry with Staphylococcus aureus, in the assay on Burkholderia cepacia, with Escherichia coli, in the assay on Trichophyton rubrum, with Pichia kudriavzevii and with Micrococcus luteus was “inactive” in each case. The MIC result in the assay on Klebsiella pneumoniae, in the assay on Candida albicans, in the assay with Bacillus subtilis and with Enterobacter cloacae was “inactive” in each case. In addition, the minimal inhibitory concentration (MIC) came to 0.56 mM (≈ 123 µg/mL) with Pseudomonas aeruginosa (MTCC 424, 24 h); 0.14 mM (≈ 30.8 µg/mL) with Aspergillus sydowii (MTCC 4335, 120 h); 0.56 mM (≈ 123 µg/mL) in the assay with Aspergillus niger (MTCC 404, 120 h); 0.14 mM (≈ 30.8 µg/mL) in the assay with Aspergillus parasiticus (MTCC 2797, 120 h).

`CC(C)OC(=O)/C=C/c1ccccc1`: the MIC entry in the assay on Staphylococcus aureus, in the assay with Burkholderia cepacia, with Pseudomonas aeruginosa, in the assay on Escherichia coli, in the assay with Trichophyton rubrum and in the assay on Pichia kudriavzevii was “inactive” throughout. Besides, the MIC result in the assay on Aspergillus sydowii, in the assay on Micrococcus luteus, in the assay with Klebsiella pneumoniae, in the assay with Candida albicans, with Bacillus subtilis and in the assay with Aspergillus niger was “inactive” throughout. For the same compound, the MIC entry in the assay with Enterobacter cloacae and in the assay on Aspergillus parasiticus was “inactive” throughout.

Take `O=C/C=C/c1ccccc1` [CINNAMALDEHYDE]: the minimal inhibitory concentration (MIC) in the assay on Staphylococcus aureus (MTCC 3160, 24 h) is 1.89 mM (≈ 250 µg/mL); in the assay on Burkholderia cepacia (MTCC 438, 24 h), 1.89 mM (≈ 250 µg/mL); in the assay with Pseudomonas aeruginosa (MTCC 424, 24 h), 1.89 mM (≈ 250 µg/mL); with Escherichia coli (MTCC 43, 24 h), 1.89 mM (≈ 250 µg/mL); in the assay on Trichophyton rubrum (MTCC 296, 120 h) it was 0.47 mM (≈ 62.1 µg/mL); in the assay on Pichia kudriavzevii (MTCC 231, 24 h), 0.47 mM (≈ 62.1 µg/mL). For the same compound, the MIC with Aspergillus sydowii (MTCC 4335, 120 h) was found to be 3.78 mM (≈ 500 µg/mL); in the assay with Micrococcus luteus (MTCC 2470, 24 h) it was 3.78 mM (≈ 500 µg/mL); in the assay on Klebsiella pneumoniae (MTCC 109, 24 h) it was 3.78 mM (≈ 500 µg/mL); in the assay with Candida albicans (MTCC 3017, 24 h), 0.47 mM (≈ 62.1 µg/mL); in the assay on Bacillus subtilis (MTCC 121, 24 h) it was 1.89 mM (≈ 250 µg/mL); with Aspergillus niger (MTCC 404, 120 h) it was 1.89 mM (≈ 250 µg/mL). For the same compound, the minimum inhibitory concentration (MIC) was 1.89 mM (≈ 250 µg/mL) in the assay on Enterobacter cloacae (MTCC 509, 24 h) and 3.78 mM (≈ 500 µg/mL) in the assay with Aspergillus parasiticus (MTCC 2797, 120 h).

Turning to `CC1(C)S[C@@H]2[C@H](NC(=O)[C@H](N)c3ccccc3)C(=O)N2[C@H]1C(=O)O` [AMPICILLIN], the MIC stood at 0.01 mM (≈ 3.49 µg/mL) in the assay with Staphylococcus aureus (MTCC 3160, 24 h); 5.7 mM (≈ 1990 µg/mL) in the assay on Burkholderia cepacia (MTCC 438, 24 h); 2.8 mM (≈ 978 µg/mL) in the assay with Pseudomonas aeruginosa (MTCC 424, 24 h); 0.08 mM (≈ 28 µg/mL) in the assay with Escherichia coli (MTCC 43, 24 h); 0.01 mM (≈ 3.49 µg/mL) with Micrococcus luteus (MTCC 2470, 24 h); 5.7 mM (≈ 1990 µg/mL) in the assay on Klebsiella pneumoniae (MTCC 109, 24 h). In addition, the MIC in the assay with Bacillus subtilis (MTCC 121, 24 h) turned out to be 0.01 mM (≈ 3.49 µg/mL); in the assay on Enterobacter cloacae (MTCC 509, 24 h) it was 5.7 mM (≈ 1990 µg/mL).
